# Experimental data as given in US20160228380A1, “IMPREGNANATION OF OXYGEN CARRIER COMPOUNDS INTO CARRIER MATERIALS PROVIDING COMPOSITIONS AND METHODS FOR THE TREATMENT OF WOUNDS AND BURNS” (VIRGINIA COMMONWEALTH UNIVERSITY, priority 2013, published 2016).
# Test: TGA of PFD weight loss from coated aerogel, uncoated aerogel and pure PFD
# Format: physicochemical
# Settings: held at 37° C. for 60 minutes, aerogel-free basis
compound,measurement,value
"FC1(F)C(F)(F)C(F)(F)C2(F)C(F)(F)C(F)(F)C(F)(F)C(F)(F)C2(F)C1(F)F (stereo not shown) [pure PFD, perfluorodecalin]",loss of available PFD,100%
